According to patent EP1056778B1, “G PROTEIN-COUPLED RECEPTOR ANTAGONISTS” (priority 1998, dated 1999):
Like-named read-outs stand apart in the source and are kept apart here. Where a SMILES comes first, the peptide text is derived from it.

Columns and labels:
[1] = biological target: T1, CCKAR (Rattus norvegicus, UniProt P30551); experiment: Inhibition of binding of fluorescent agonist RG-CCK-8, quantitative confocal laser scanning microscopy
T1 construct: expressed in transfected cells; host or cells: CHO cells
T1 sequence (P30551 1-444): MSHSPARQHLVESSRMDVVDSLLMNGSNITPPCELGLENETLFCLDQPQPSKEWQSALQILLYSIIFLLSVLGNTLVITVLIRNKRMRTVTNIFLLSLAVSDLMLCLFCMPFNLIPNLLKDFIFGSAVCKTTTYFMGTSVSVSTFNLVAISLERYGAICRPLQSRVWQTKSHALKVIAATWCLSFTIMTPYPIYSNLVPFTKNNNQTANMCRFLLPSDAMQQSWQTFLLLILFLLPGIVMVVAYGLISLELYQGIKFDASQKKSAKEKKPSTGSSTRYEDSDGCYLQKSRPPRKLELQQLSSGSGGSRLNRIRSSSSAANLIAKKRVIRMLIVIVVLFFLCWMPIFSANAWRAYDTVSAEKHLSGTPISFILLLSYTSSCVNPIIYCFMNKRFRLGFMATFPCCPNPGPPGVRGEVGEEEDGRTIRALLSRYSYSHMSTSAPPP

[2] = biological target: T1, CCKAR; experiment: Inhibition of CCK-8 evoked intracellular calcium release in CHO cells stably transfected with rat CCKAR; type: cell-based
Method: The activity of peptides from the CCKAR transmembrane domain were tested in transfected CHO cells that stably express rat […] et al. (1997), J. Biol. Chem. 272: 14817-14824). Sulfated cholecystokinin octapeptide was the CCKAR agonist. Determination of intracellular calcium release was performed as described in example 1 above. None of CCKAR-derived peptides served as antagonists of chemokine receptors and none could inhibit HIV-1 infection. The activity of the antagonists in inhibiting signaling through the receptor was compared to the ability to prevent agonist binding (Table 4). Inhibition of signaling was assessed in CCK-8 evoked intracellular calcium release in FURA-2/AM treated CHO cells stably transfected with rat […], et al. (1997) J. Biol. Chem. 272:14817). Inhibition of ligand binding was measured with the use of a fluorescent agonist, rhodamine green CCK-8 (RG-CCK-8) and quantitative confocal laser scanning microscopy (Tarasova, et al. (1997) J. Biol. Chem. 272:14817). Peptides derived from the first, second, and sixth transmembrane domains inhibited CCK-induced signaling through the CCKAR receptor. […] Table 4. The activity of CCKAR-derived TM peptides in inhibition of CCK-8 -induced intracellular calcium release and RG-CCK-8 binding.

[3] = test system: HIV-1RF; experiment: Anti-HIV-1 cytoprotection assay, CEM-SS cells infected with HIV-1 strain RF; type: cell-based; conditions: 1RF
[4] = biological target: CXCR4 (Homo sapiens, UniProt P61073); experiment: Inhibition of SDF-1α-induced intracellular calcium release (Fura-2/AM, HeLa and U87 cells expressing CXCR4); type: cell-based; conditions: Table 2; SDF-1α-induced intracellular calcium release
Method: The effect of the peptides on CXCR4-mediated calcium fluxes in HeLa cells that naturally express the CXCR4 receptor and U87 cells stably expressing the CXCR4 receptor was tested as follows. Cells grown on Nunc cover glass chamber slides were incubated with 1 micromolar Fura-2/AM for 20 min in a CO2-incubator, rinsed with PBS and mounted on the stage of a Zeiss Axiovert inverted microscope. [Ca^2+]i measurements were performed using an Attofluor digital imaging system (Atto Instruments, Rockville, MD). Fluorescence of Fura was excited at alternating wavelength of 340 and 380 nm. Fluorescence was monitored by an intensified CCD camera using a 505 cut-off filter. Calibrations of [Ca^2+]i signals were performed using Ca^2+ standards containing 1 micromolar Fura. CXCR4 antagonists were tested on HeLa cells and U87 cells. Stromal cell-derived factor-1α (SDF-1α) was used as a specific CXCR4 agonist.
CCR5 antagonists, which were used in selectivity studies as described below, were tested on HEK (human kidney […]) cells stably expressing the CCR5 receptor and RANTES was used as an agonist. The antagonist activity of the peptides was evaluated by measuring the inhibition of agonist-evoked intracellular Ca^2+i release. These measurements were carried out in Fura-2/AM-treated cells, utilizing an Attofluor digital imaging system as described above. The agonist was SDF-1α.
Further optimization and structure-activity studies allowed to obtain antagonists derived from all but the third and fifth transmembrane domains (Table 2). Table 1. Activity of synthetic peptides corresponding to predicted transmembrane domains of CXCR4 in inhibition of SDF-1α-induced intracellular calcium release.
Table 2. Biological activity of CXCR4 antagonists derived from different transmembrane domains. Anti signaling activity was determined in inhibition of SDF-1α-induced intracellular calcium release. Anti-HIV-1 activity was assessed in cytoprotection assay utilizing CEM-SS cells infected with HIV-1RF.

Sequence of CXCR4 (P61073 whole entry): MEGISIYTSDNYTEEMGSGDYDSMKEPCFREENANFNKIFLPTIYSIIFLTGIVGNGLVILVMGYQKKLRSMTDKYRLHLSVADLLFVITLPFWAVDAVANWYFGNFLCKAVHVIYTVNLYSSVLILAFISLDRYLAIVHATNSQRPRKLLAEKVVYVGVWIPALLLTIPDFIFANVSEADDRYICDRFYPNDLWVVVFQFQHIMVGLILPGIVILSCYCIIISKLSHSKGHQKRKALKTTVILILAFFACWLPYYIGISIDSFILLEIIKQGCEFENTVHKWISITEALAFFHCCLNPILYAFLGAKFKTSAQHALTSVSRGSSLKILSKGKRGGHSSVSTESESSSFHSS

CC[C@H](C)[C@H](NC(=O)[C@H](CCC(N)=O)NC(=O)[C@H](CC(C)C)NC(=O)[C@H](C)NC(=O)[C@H](CO)NC(=O)[C@H](CCC(N)=O)NC(=O)[C@H](Cc1c[nH]c2ccccc12)NC(=O)[C@H](CCC(=O)O)NC(=O)[C@H](CC(=O)O)NC(=O)[C@@H](N)CC(=O)O)C(=O)N[C@@H](CC(C)C)C(=O)N[C@@H](CC(C)C)C(=O)N[C@@H](Cc1ccc(O)cc1)C(=O)N[C@@H](CO)C(=O)N[C@H](C(=O)N[C@H](C(=O)N[C@@H](Cc1ccccc1)C(=O)N[C@@H](CC(C)C)C(=O)N[C@@H](CC(C)C)C(=O)N[C@@H](CO)C(=O)N[C@H](C(=O)NCC(=O)N[C@@H](CC(N)=O)C(=O)N[C@H](C(=O)N[C@@H](CC(C)C)C(=O)N[C@H](C(=O)N[C@H](C(=O)N[C@H](C(=O)N[C@H](C(=O)O)C(C)C)[C@@H](C)O)[C@@H](C)CC)C(C)C)[C@@H](C)O)C(C)C)[C@@H](C)CC)[C@@H](C)CC [CCKAR-1-6] (H-DDEWQSALQILLYSIIFLLSVGNTLVITV-OH) was tested, and the IC50 ([1]; fluorescent agonist rhodamine green CCK-8, read-out: IC50 in inhibiton of RG-CCK-8 binding) was 20 µM.
For CSCC[C@H](NC(=O)[C@H](CC(C)C)NC(=O)[C@H](CC(=O)O)NC(=O)[C@H](CO)NC(=O)[C@@H](NC(=O)[C@H](C)NC(=O)[C@H](CC(C)C)NC(=O)[C@H](CO)NC(=O)[C@H](CC(C)C)NC(=O)[C@H](CC(C)C)NC(=O)[C@@H](N)Cc1ccccc1)C(C)C)C(=O)N[C@@H](CC(C)C)C(=O)N[C@@H](CS)C(=O)N[C@@H](CC(C)C)C(=O)N[C@@H](Cc1ccccc1)C(=O)N[C@@H](CS)C(=O)N[C@@H](CCSC)C(=O)N1CCC[C@H]1C(=O)N[C@@H](Cc1ccccc1)C(=O)N[C@@H](CC(N)=O)C(=O)N[C@@H](CC(C)C)C(=O)N1CCC[C@H]1C(=O)O [CCKAR-2-1] (H-FLLSLAVSDLMLCLFCMPFNLP-OH), the “Concentration, required for inhibition of signaling” value ([2]; CCK-8-induced intracellular calcium release, CHO cells with rat CCKAR) was 2 µM and the “potency in inhibition of ligand signaling compared with binding” value ([2]; comparison of signaling and binding, Table 4) was “comparable potencies”.
With CC[C@H](C)[C@H](NC(=O)CNC(=O)[C@@H]1CCCN1C(=O)[C@H](CC(C)C)NC(=O)[C@H](CC(C)C)NC(=O)[C@H](Cc1ccccc1)NC(=O)[C@H](CC(C)C)NC(=O)[C@@H](NC(=O)[C@H](CC(C)C)NC(=O)[C@H](CC(C)C)NC(=O)[C@H](CC(C)C)NC(=O)[C@H](Cc1ccccc1)NC(=O)[C@@H](NC(=O)[C@H](CCC(N)=O)NC(=O)[C@H](CC(=O)O)NC(=O)[C@@H](N)CC(=O)O)[C@@H](C)O)[C@@H](C)CC)C(=O)N[C@H](C(=O)N[C@@H](CCSC)C(=O)N[C@H](C(=O)N[C@H](C(=O)N[C@@H](C)C(=O)N[C@@H](Cc1ccc(O)cc1)C(=O)NCC(=O)N[C@@H](CC(C)C)C(=O)O)C(C)C)C(C)C)C(C)C [CCKAR-5-3] (H-DDQTFLLLILFLLPGIVMVVAYGL-OH) the IC50 [1] was greater than 50 µM.
In the case of CC[C@H](C)[C@H](N)C(=O)N[C@H](C(=O)N[C@H](C(=O)N[C@@H](CC(C)C)C(=O)N[C@@H](Cc1ccccc1)C(=O)N[C@@H](Cc1ccccc1)C(=O)N[C@@H](CC(C)C)C(=O)N[C@@H](CS)C(=O)N[C@@H](Cc1c[nH]c2ccccc12)C(=O)N[C@@H](CCSC)C(=O)N1CCC[C@H]1C(=O)N[C@H](C(=O)N[C@@H](Cc1ccccc1)C(=O)N[C@@H](CO)C(=O)N[C@@H](C)C(=O)N[C@@H](CC(N)=O)C(=O)N[C@@H](C)C(=O)N[C@@H](Cc1c[nH]c2ccccc12)C(=O)N[C@@H](CCCNC(=N)N)C(=O)N[C@@H](C)C(=O)N[C@@H](Cc1ccc(O)cc1)C(=O)N[C@@H](CC(=O)O)C(=O)N[C@H](C(=O)N[C@H](C(=O)N[C@@H](CC(=O)O)C(=O)N[C@@H](CC(=O)O)C(=O)O)C(C)C)[C@@H](C)O)[C@@H](C)CC)C(C)C)C(C)C [CCKAR-6-4] (H-IVVLFFLCWMPIFSANAWRAYDTVDD-OH), the IC50 [1] is reported as greater than 50 µM.
CC[C@H](C)[C@H](NC(=O)[C@@H]1CCCN1C(=O)[C@H](CC(N)=O)NC(=O)[C@H](CC(C)C)NC(=O)[C@H](CS)NC(=O)[C@H](CS)NC(=O)[C@H](Cc1c[nH]cn1)NC(=O)[C@H](Cc1ccccc1)NC(=O)[C@H](Cc1ccccc1)NC(=O)[C@H](C)NC(=O)[C@H](CC(C)C)NC(=O)[C@H](C)NC(=O)[C@H](CCC(=O)O)NC(=O)[C@H](CC(=O)O)NC(=O)[C@@H](N)CC(=O)O)C(=O)N[C@@H](CC(C)C)C(=O)N[C@@H](Cc1ccc(O)cc1)C(=O)N[C@@H](C)C(=O)N[C@@H](Cc1ccccc1)C(=O)N[C@@H](CC(C)C)C(N)=O [Peptide F-7-3] (H-DDEALAFFHCCLNPILYAFL-NH2; N-terminus assumed) was tested, and the EC50 [3] was 3.27 µM and the “Concentration, required for inhibition of signal transduction” value [4] was 25 µM.
